From PMC10709440, “High-throughput ligand profile characterization in novel cell lines expressing seven heterologous insect olfactory receptors for the detection of volatile plant biomarkers” (Scientific Reports, 2023) come the findings set out here.

Each structure is given as a SMILES string.

Common to all, as to test: cell-based
What all share (parameters): GCaMP6 calcium fluorescence in stable HEK293 OR+ORCO lines; peak dF normalised to 50 uM VUAA1 (=1)

For one assay, the target named is T1, Drosophila OR10a (Drosophila melanogaster, UniProt Q9VYZ1).
T1 construct: expressed in transfected cells
T1 sequence (Q9VYZ1 1-406): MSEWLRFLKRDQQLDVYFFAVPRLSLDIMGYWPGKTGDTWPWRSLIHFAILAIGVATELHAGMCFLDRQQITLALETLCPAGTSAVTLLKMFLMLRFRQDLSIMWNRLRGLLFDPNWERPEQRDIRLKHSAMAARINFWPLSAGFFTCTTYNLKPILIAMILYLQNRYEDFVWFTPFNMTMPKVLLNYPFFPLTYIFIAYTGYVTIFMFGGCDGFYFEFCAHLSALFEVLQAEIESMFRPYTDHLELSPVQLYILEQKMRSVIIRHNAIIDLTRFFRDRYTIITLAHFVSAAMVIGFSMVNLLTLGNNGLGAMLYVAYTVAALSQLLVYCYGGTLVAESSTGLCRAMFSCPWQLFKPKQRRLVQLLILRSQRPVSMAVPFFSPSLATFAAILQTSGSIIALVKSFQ
T1 sequence (Q9VNB5 1-486 partner): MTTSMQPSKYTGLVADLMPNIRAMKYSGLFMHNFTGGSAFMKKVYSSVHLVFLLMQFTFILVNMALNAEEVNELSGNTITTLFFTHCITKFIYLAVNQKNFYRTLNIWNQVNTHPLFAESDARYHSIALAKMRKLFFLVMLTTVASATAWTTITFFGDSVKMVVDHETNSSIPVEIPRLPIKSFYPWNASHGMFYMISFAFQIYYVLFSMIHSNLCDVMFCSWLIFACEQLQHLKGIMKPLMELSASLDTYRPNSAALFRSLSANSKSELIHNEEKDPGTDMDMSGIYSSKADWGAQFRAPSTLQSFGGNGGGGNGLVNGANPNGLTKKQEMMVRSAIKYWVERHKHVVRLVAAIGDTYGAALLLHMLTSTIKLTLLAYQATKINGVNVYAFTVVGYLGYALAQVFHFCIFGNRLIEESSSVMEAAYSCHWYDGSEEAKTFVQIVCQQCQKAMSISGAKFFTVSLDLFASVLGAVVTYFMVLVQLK
To be noted: relative to 50 uM VUAA1 response, below 0.05 set to 0; for activity at 10 µM / activity at 100 µM / activity at 1 µM: HEK293, read-out: % activation; for % activation: agonist. As to the method:
(§1) Twelve thousand to 18,000 cells were plated into each well of a black wall, transparent bottom 384-well microplate (Greiner) 48 h or 72 h before the measurements and were simultaneously treated with 1 μg/mL doxycycline. […] The plate has 24 columns, thus we could record responses in up to eight different cell lines in each plate. On the day of the experiment, the growth medium was replaced with 20 µL assay buffer/well (140 mM NaCl, 5 mM KCl, 2 mM CaCl2, 1 mM MgCl2, 5 mM HEPES-Na, 20 mM glucose, pH 7.3, 340 mOsm). […] Baseline fluorescence (F0) was recorded for 5 s, after which 7 µL VOC buffer (140 mM NaCl, 5 mM KCl, 2 mM CaCl2, 1 mM MgCl2, 5 mM HEPES-Na, 31 mM glucose, 0.1% DMSO, pH 7.3, 340 mOsm) was injected into each well in one row and the fluorescence response was recorded for an additional 30 s, at a rate of one read/sec. VOC solutions (VOC buffer with 4× concentration of the final measured VOC concentration, 9 µL/well was injected) were measured on the same wells in a second round with the same protocol. Each individual concentration of a specific VOC sample was recorded in three wells for the same cell line on the same microplate. The raw data were exported in xls file format, F0 and FMAX values, and the fluorescence intensity changes (∆F) were calculated in Excel (Microsoft) (Supplementary file Data summary.xlsx) using the following equation: ΔF=FMAX-F0/F0 (see also Fig. 1C). On each plate, we recorded the response of each cell line to 50 µM VUAA1. The average of these ∆F values of each cell line were used to calculate the VUAA1-normalized values for the rest of the plate, by dividing VOC response ∆F values by the average VUAA1 response ∆F value of the corresponding OR cell line. Each VOC-OR combination was measured three times as tec The recorded FMAX, F0, ∆F, VUAA1-normalized ∆F values, as well as the OR name, the name of the tested sample, and the final concentration for each well were copied into supplementary file Data summary.xlsx, that was used to summarize all the plates recorded. Here, the averages of the measurements were calculated for each receptor-VOC-concentration combination. […] Each VOC was measured at 1, 10, and 100 µM final concentration on each receptor. VUAA1-normalized response was calculated as described in methods.

The target in a further assay is T2, Drosophila OR47a (Drosophila melanogaster, UniProt P81921).
T2 construct: expressed in transfected cells
T2 sequence (P81921 1-385): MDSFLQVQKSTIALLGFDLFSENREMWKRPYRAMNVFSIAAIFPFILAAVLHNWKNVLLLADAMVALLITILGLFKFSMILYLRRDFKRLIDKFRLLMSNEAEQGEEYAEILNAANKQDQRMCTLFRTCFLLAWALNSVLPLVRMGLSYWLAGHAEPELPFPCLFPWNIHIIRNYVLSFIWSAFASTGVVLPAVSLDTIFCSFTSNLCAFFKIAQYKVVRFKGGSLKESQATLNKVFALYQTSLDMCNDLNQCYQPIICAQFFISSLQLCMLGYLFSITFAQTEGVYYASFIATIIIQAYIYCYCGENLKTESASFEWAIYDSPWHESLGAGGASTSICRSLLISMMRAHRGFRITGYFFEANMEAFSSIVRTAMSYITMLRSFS
T2 sequence (Q9VNB5 1-486 partner): T1 sequence (Q9VNB5 1-486 partner)
To be noted: relative to 50 uM VUAA1 response, below 0.05 set to 0; for activity at 1 µM / activity at 10 µM / activity at 100 µM: HEK293, read-out: % activation; for % activation: 10 µM, agonist, 10 / OR47a. On the procedure:
as §1

Another assay addresses T3, Drosophila OR13a (Drosophila melanogaster, UniProt Q9VXL0).
T3 construct: expressed in transfected cells
T3 sequence (Q9VXL0 1-418): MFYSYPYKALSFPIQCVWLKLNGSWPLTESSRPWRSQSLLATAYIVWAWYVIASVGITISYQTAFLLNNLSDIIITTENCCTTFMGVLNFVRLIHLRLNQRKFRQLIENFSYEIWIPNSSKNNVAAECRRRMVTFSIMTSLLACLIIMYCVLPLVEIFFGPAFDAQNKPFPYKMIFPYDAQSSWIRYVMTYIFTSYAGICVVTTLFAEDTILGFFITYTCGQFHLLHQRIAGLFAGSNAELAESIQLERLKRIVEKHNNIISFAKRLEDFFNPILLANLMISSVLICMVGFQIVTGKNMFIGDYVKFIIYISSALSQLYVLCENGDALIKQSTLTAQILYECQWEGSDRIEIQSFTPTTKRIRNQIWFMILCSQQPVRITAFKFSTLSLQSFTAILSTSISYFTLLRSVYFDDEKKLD
T3 sequence (Q9VNB5 1-486 partner): T1 sequence (Q9VNB5 1-486 partner)
To be noted: HEK293; relative to 50 uM VUAA1 response; below 0.05 set to 0; read-out: % activation. As to the method:
as §1

In the case of `CC1=CCC[C@@]2(C)[C@@H]3CC[C@]12CC3(C)C` [(−)-α-neoclovene], at Drosophila OR10a, the activity at 10 µM was 13.1% and the activity at 100 µM amounted to 12.4%.
Consider `OCCc1ccccc1` [phenethyl alcohol], for which, at Drosophila OR47a, the activity at 1 µM was 5.64%, the activity at 10 µM was found to be 6.44% and the activity at 100 µM came out at 5.7%.
As for `C=C1CC[C@@]23C[C@@H]1C(C)(C)[C@@H]2CC[C@H]3C` [(+)-beta-cedrene], on Drosophila OR47a, the activity at 1 µM was 0%, the activity at 10 µM stood at 0% and the activity at 100 µM came to 0%. In addition, at Drosophila OR13a, the activity at 1 µM worked out at 0%, the activity at 10 µM was found to be 0% and the activity at 100 µM turned out to be 0%. Moreover, on Drosophila OR10a, the activity at 1 µM worked out at 0%, the activity at 10 µM stood at 0% and the activity at 100 µM was 0%.
As for `C=C(C)[C@H]1CC=C(C)CC1` [(R)-(+)-limonene], the activity at 1 µM on Drosophila OR47a, at Drosophila OR13a and at Drosophila OR10a was 0% each time. Further, the activity at 100 µM on Drosophila OR47a and at Drosophila OR13a was 0% each time. The “% activation” value amounted to 0.05286% at Drosophila OR47a and 0.1196% on Drosophila OR10a (10 µM, 10 / OR10a). For the same compound, the activity at 10 µM on Drosophila OR13a is 0%.
For `COC(=O)c1ccccc1` [methyl benzoate], the activity at 100 µM on Drosophila OR47a stood at 5.95%.
Turning to `C=C(C)C1CCC2(C)OC2C1` (single isomer, unassigned; (+)) [(+)-limonene oxide], on Drosophila OR47a, the activity at 1 µM was determined as 0%, the activity at 10 µM came out at 0% and the activity at 100 µM was 0%. Moreover, at Drosophila OR13a, the activity at 1 µM came out at 0%, the activity at 10 µM came to 0% and the activity at 100 µM is 0%. In addition, at Drosophila OR10a, the activity at 1 µM was 0%, the activity at 10 µM worked out at 0% and the activity at 100 µM was determined as 0%.
As to `C=C(C)[C@H]1CC=C(C)CC1` [limonene], the “% activation” value is on record as 0% on Drosophila OR47a; 0% on Drosophila OR10a (10 µM, 10 / OR10a); 0.05729% on Drosophila OR10a (100 µM, 100 / OR10a).
Regarding `C=C1[C@H]2CC[C@@H]3[C@H]2C(C)(C)CCC[C@]13C` [(+)-longifolene], on Drosophila OR47a, the activity at 1 µM worked out at 0%, the activity at 10 µM was 0% and the activity at 100 µM turned out to be 0%. Besides, at Drosophila OR13a, the activity at 1 µM was found to be 0%, the activity at 10 µM was 0% and the activity at 100 µM is 0%. Further, at Drosophila OR10a, the activity at 1 µM amounted to 8.31%, the activity at 10 µM worked out at 5.37% and the activity at 100 µM was 0%.
